Assays:
[1] = tested on: COX-2; assay: COX-2 protein, NTI164 plus prednisone (Example 8); format: cell-based; details: PDN 5 uM; NTI164 7.5 ug/ml; Interleukin & Interferon activation =1
Procedure: Cells were fixed for 10 min with 4% paraformaldehyde (PFA) in PBS. After 3×5 minutes washing with PBS, cells were incubated with primary antibodies. (anti-COX2) 1:1000 overnight at 4° C., and after 3×5 minutes washing in PBS, cells were then incubated in appropriate fluorescent secondary antibody 1:250 (Invitrogen) for 2 hours at room temperature. After a final wash, as previous, cells nuclei were stained with DAPI in the mounting media. Photomicrographs were taken of the cells in three fields of view per well from duplicate wells and analysed using Fiji for area coverage of each marker.
Treatment groups include: • (1) Control: PBS Buffer • (2) Positive control: Inflammatory stimulation by Interferon gamma and Interleukin-1B activation Prednisone (PDN) concentration 5 uM • (3) Combination therapy: Prednisone (PDN) 5 uM+NTI164 concentration 7.5ug/ml
Result Analysis: Calculated as % reduction in inflammation, PDN versus Combination therapy (prednisone 5 uM+NTI164 concentration 7.5ug/ml). Student's t-test was used for statistical analysis.

[2] = tested on: TNFα; assay: TNFα in microglial culture media, NTI164 plus psylocibin (Example 9); format: cell-based; details: PBS Control 1.00, Positive activation I&I 10.67
Procedure: Microglia media harvested following treatment initiation was centrifuged briefly to remove particulates (300 g for 10 min). The level of TNFα in the microglial culture media was measured using a Bio-Plex 200 with a 96-well magnetic plate assay according to the manufacturer's instructions (Bio-Rad). The samples were run in duplicate that were averaged for analysis. At least three samples per group were run.

[3] = tested on: IL-12; assay: Multiplex cytokine assay, IL-12, microglial cells (Example 4); format: cell-based, human; details: 2 μg/ml
Procedure: (§1) Multiplex Cytokine/Chemokine Assay: Microglia media harvested following treatment initiation was centrifuged briefly to remove particulates (300 g for 10 min). Cytokine and chemokine levels in the microglial media were measured using a Bio-Plex 200 with a 96-well magnetic plate assay according to the manufacturer's instructions (Bio-Rad). Cytokines and chemokines measured included IL-1α, IL-1β, IL-2, IL-6, IL-10, IL-12 (p70), IL-13, G-CSF, GM-CSF, IFNγ, TNFα, CXCL1 (KC), CCL2 (MCP-1), and CCL5 (RANTES). All samples were run in duplicate and data were analyzed with the Bio-Plex Manager software.
(§2) 500 mg of dried plant material of NTI164 is suspended in 20 ml of absolute ethanol (using 50 ml blue top falcon tubes appropriate for centrifugation) and stirred/shaken vigorously for 60 seconds. The tubes are then placed in a sonication bath for 10 mins at 35-40 C. Upon completion of the sonication samples are then placed in a tray shaker (200 rpm) for 30 minutes at room temperature. Once completed the samples are then centrifuged at 4400 rpm for 5 minutes. The supernatant is collected for testing and development.
(§3) Units used to describe treatments for test products and concentrations for NTI164. • a. 1/1000 dilution of extract—10 µL (stock material is NTI164—10 µL, which equates to 2 μg/ml of CBDA) • b. […]

[4] = tested on: cells in an excitotoxic cell injury paradigm; assay: Cell death in an excitotoxic cell injury paradigm; format: cell-based
Procedure: Neuronal viability was quantified using MTT [3-(4,5-dimethylthiazol-2-yl-)-2,5-diphenyl-2H-tetrazolium bromide; Sigma]. NTI164 treated celled were able to increase the number of “healthy” cells under basal conditions following short term glutamate exposure. Cellular excitotoxicity was achieved via glutamate activation (3 mM). NTI164 was able to stimulate cell growth after short term glutamate induced “insult”.

[5] = tested on: TNF-alpha; assay: Multiplex cytokine assay, TNF-alpha, microglial cells (Example 4); format: cell-based, human; details: 2 μg/ml
Procedure: as §1, §2, §3

[6] = tested on: COX-2; assay: COX-2 immunohistochemistry in human derived microglial cells (Example 4); format: cell-based; details: for COX-2 expression (Avg +/− SEM): 2 μg/ml, N=9
Procedure: Immunohistochemistry (Protein Level) Assay: Cells were fixed for 10 min with 4% paraformaldehyde (PFA) in PBS. After 3×5 minutes washing with PBS, cells were incubated with primary antibodies (anti-COX2) 1:1000 overnight at 4° C., and after 3×5 minutes washing in PBS, cells were then incubated in appropriate fluorescent secondary antibody 1:250 (Invitrogen) for 2 hours at room temperature. After a final wash, as previous, cells nuclei were stained with DAPI in the mounting media. Photomicrographs were taken of the cells in three fields of view per well from duplicate wells and analysed using Fiji for area coverage of each marker.
as §2
Units used to describe treatments for test products and concentrations for NTI164. • a. 1/1000 dilution of extract—10 µL (stock material is NTI164—10 µL, which equates to 2 μg/ml of CBDA) • b. 1/3000 dilution of extract—3 µL (stock material is NTI164—3 µL, which equates to […] of CBDA) • c. 1/10000 dilution of extract—1 µL (stock material is NTI164—1 µL, which equates to 0.1 μg/ml of CBDA)
For the CBD sample, a pure standard (in powder form) was used. CBD 98% isolate was purchased as a reference standard from LGC Standards (London UK) (CAS No. 13956-29-1). The CBD standard reference was prepared at concentration of 1 mg/ml (in acetonitrile). CBD dilutions were made in acetonitrile as follows: 2 μg/ml; 6 μg/ml; and 0.1 μg/ml.
The final concentration of NTI164 (CBDA equivalent) and CBD that was used in these studies was 2 μg/ml.

[7] = Interleukin and Interferon activation
[8] = exposure 1 hour after inflammatory insult
[9] = exposure 1 hour prior to inflammatory insult

C[C@]12C=CC(=O)C=C1CC[C@@H]1[C@@H]2C(=O)C[C@@]2(C)[C@H]1CC[C@]2(O)C(=O)CO [PDN, Prednisone]
COX-2 Protein [1]: 0.888

CN(C)CCc1c[nH]c2cccc(OP(=O)(O)O)c12 [SubP (Psylocibin), Psylocibin]
TNF-ALPHA ASSESSMENTS RESULTS ([2]; 1 ug/ml): 4.87 | TNF-ALPHA ASSESSMENTS RESULTS ([2]; 5 ug/ml): 9.17

C=C(C)[C@@H]1CCC(C)=C[C@H]1c1c(O)cc(CCCCC)cc1O [CBD, cannabidiol]
Statistical Significance Reduction Compared to Control Alone (P), IL-12 [3]: = 0.008 | IL-12, Average [3, 7]: 84.40 | cell death / toxicity [4]: toxic | Statistical Significance Reduction Compared to Control Alone (P), TNF-alpha [5]: = 0.0005 | TNF-alpha, Average [5, 7]: 71.13 | P, positive control vs treatment (COX-2) [6, 8]: P = 0.0566 | COX-2 expression (Avg +/− SEM) [6, 8]: 76.32 +/− 7.95 (SEM) | P, positive control vs treatment (COX-2) [6, 9]: P = 0.3237 | COX-2 expression (Avg +/− SEM) [6, 9]: 84.82 +/− 7.65 (SEM)

From patent US20250057858A1, “COMPOSITIONS AND METHODS FOR TREATING NEUROLOGICAL DISORDERS WITH COMBINATION PRODUCTS” (Neurotech International Ltd, priority 2021, published 2025)
